In patent EP4631928A1, “METHOD OF PURIFICATION OF GLYCOLIC ACID, COMPOSITION AND USE THEREOF” (Metabolic Explorer, priority 2024, dated 2025):

Legend:
[1] = Tissue viability, MTT assay on 3D reconstructed human epidermis after topical application; format: cell-based; conditions: human, 24 hours, relative to untreated epidermis
Protocol: (§1) The assay takes place in two steps: • Step 1: EC50 concentration finding assay is performed with one representative sample. • Step 2: determination of EC50 concentration values and IL-1α levels performed with both GA.
(§2) Prior to GA application, tissue inserts are transferred in 12-well plates prefilled with fresh maintenance medium. 60 µl/cm^2 of each GA solution is applied on top of epidermidis. After application, tissues are incubated for 24 hours at 37°C (±1 °C) and 5% ([…]) CO2.
(§3) The tissue viability is measured with the MTT assay performed in 24 hours. The MTT assay is based on the reduction of 3-(4,5-Dimethylthiazol-2-yl)-2,5-Diphenyltetrazolium Bromide (MTT) into insoluble purple formazan crystals, by metabolically active cells in a mitochondria-dependant reaction catalysed by succinate dehydrogenase. The ability of cells to reduce MTT after exposure to GA, compared to the control (untreated epidermis), enables to deduce the relative toxicity of the applied GA. The optical density (OD) of formazan solution is proportional to the number of viable cells.
(§4) After incubation, tissues are rinsed with PBS and then transferred into 24-well plates pre-filled with MTT solution. After 120 minutes (±10 minutes) of incubation at 37°C (±1 °C), the tissues are transferred into 24-well plates containing DMSO for extraction of formazan. Then the plates are stored overnight at room temperature. At the end of the extraction period, 3 x 200 µl aliquots of formazan extracts are transferred into a 96-well flat bottom microtiter plate and the optical density is read at 570 nm in a microplate reader.
(§5) The optical densities of each replicate are corrected by substracting the mean OD value of blank measured in parallel. The mean from corrected OD values (ODcorr) as well as standard deviation are calculated in each experimental group.
(§6) From the mean ODcorr values, the relative tissue viability (% viab) is calculated as a percentage of the mean viability of the control (untreated epidermis): % viab (treated) = ((treated) ODcorr mean)/((Control ODcorr mean) × 100. [formula]
(§7) The graph represents the dose response curve of cells viability (% viab) versus the GA concentration (C). The EC50 value is calculated from the dose response curve, by using the probit-log regression model.

SKINETHIC™ RHE model = experiment: as above; format: cell-based; conditions: for Tissue viability / EC50: 24 hours; for Tissue viability: relative to untreated epidermis; for EC50 value / EC50: concentration reducing viability to 50% of control tissues; for EC50: probit-log regression
Protocol: as §1, §2, §3, §4, §5, §6, §7

interleukin 1α (IL-1α) = experiment: Inflammatory response, IL-1α release assay (ELISA) on reconstructed human epidermis; format: cell-based; conditions: IL-1α level normalized to tissue viability, 24 hours
Excerpt: The 3D reconstructed human epidermis (RhE) used as test system in the study, is the SKINETHIC™ RHE model commercially available from the company EPISKIN SA. The SKINETHIC™ RHE model is obtained by tissue engineering from untransformed human keratinocytes previously obtained from human epidermis. The model is described in the OECD 439 guideline for in vitro skin irritation of chemical products.
The assay is based on topical application of the tested GA at different concentrations on reconstructed human epidermis (RHE SkinEthic™), followed by evaluation of: • Tissue viability, by MTT colorimetric test to determine the concentration of test product needed to produce the viability to 50% of control tissues (EC50). • SkinEthic™ RHE tissue inflammatory response, by interleukin 1α (IL-1α) release assay.
as §2
At the end of the assay after 24 hours incubation period, the conditioned media underneath tissues are collected, aliquoted and stored at -20°C until IL-1α assay.
IL-1α is quantified using an Elisa kit (Quantikine Human IL-1α DLA50) according to the manufacturer's instructions. The optical densities are read at 450 nm.
IL-1α levels (pg/ml) are interpolated from the standard curve built with IL-1α standard provided with the Elisa kit. The mean of IL-1α release concentrations is calculated in each experimental group. For the comparative analysis, the IL-1α levels were normalized in function of tissue viability (MMT test). The values R (IL-1α/Viab%) ×100) have been calculated at different concentrations with the two GA and collected in the following Table 18: Table 18: IL-1α ratios.

skin = experiment: Usage test, panel questionnaire on skin quality; format: in vivo, human; conditions: between the 7th and the 14th day
Excerpt: A panel of 60 women with mature skin ranging from normal to dry, were selected to apply to each half of the face, the two tested items: GA-METEX and GA-CONTROL. The panelists were asked about their feeling after 7 and 14 days of daily application. The questionnaire covered items: nourished skin, uniform skin, smooth skin, luminous skin, finer skin texture, firm skin.

For `O=C(O)CO` [GA-METEX, Glycolic acid], which viability at 24 h, 1.27 % ([1]; GA concentration 1.27%) is on record?
The viability at 24 h, 1.27 % was 74.9%.

What about the viability at 24 h, 3 % ([1]; GA concentration 3%) of the same compound?
The viability at 24 h, 3 % was 3.5%.

And the Tissue viability (SKINETHIC™ RHE model; GA concentration 1.69%)?
Its Tissue viability is 59,6%.

And the Tissue viability (SKINETHIC™ RHE model; GA concentration 2.25%)?
Its Tissue viability is 22.2%.

And the EC50 value (SKINETHIC™ RHE model)?
The EC50 value was 1.70%.

And the EC50 (SKINETHIC™ RHE model)?
The EC50 was 1.70 % p/v.

What about the “R (IL-1α/Viab%) ×100” value (interleukin 1α (IL-1α); GA concentration 1.27%) of the same compound?
Its value is 10.42.

And the “R (IL-1α/Viab%) ×100” value (interleukin 1α (IL-1α); GA concentration 1.69%)?
Its value is 18.26.

And the “R (IL-1α/Viab%) ×100” value (interleukin 1α (IL-1α); GA concentration 2.25%)?
The value was 35.56.

And the “user satisfaction, evolution” value (skin)?
The value was “significant increase in user satisfaction”.

Which Tissue viability (SKINETHIC™ RHE model; GA concentration 1.27%) does the source give for `O=C(O)CO` [GA-CONTROL, Glycolic acid] here?
Its Tissue viability is 62.1%.

What about the Tissue viability (SKINETHIC™ RHE model; GA concentration 1.69%) of the same compound?
The Tissue viability was 31.2%.

And the Tissue viability (SKINETHIC™ RHE model; GA concentration 2.25%)?
Its Tissue viability is 10.5%.

What about the Tissue viability (SKINETHIC™ RHE model; GA concentration 3%) of the same compound?
Its Tissue viability is 3.4%.

And the EC50 value (SKINETHIC™ RHE model)?
The EC50 value was 1.42%.

What about the EC50 (SKINETHIC™ RHE model) of the same compound?
The EC50 was 1.42 % p/v.

What about the “R (IL-1α/Viab%) ×100” value (interleukin 1α (IL-1α); GA concentration 1.27%) of the same compound?
The value was 15.09.

And the “R (IL-1α/Viab%) ×100” value (interleukin 1α (IL-1α); GA concentration 1.69%)?
The value was 35.33.

What about the “R (IL-1α/Viab%) ×100” value (interleukin 1α (IL-1α); GA concentration 2.25%) of the same compound?
Its value is 75.07.
